These are literature values, as cited in patent US20040048805A1, “Antilipemic agents” (priority 2003, published 2004).

The data set relates to HMG-CoA reductase. To be noted: oral administration to rabbits; Arterioscler Thromb Vasc Biol. 1998; 18: 1304.

Consider `CCC(CC)CC(=O)c1c(C(=O)OC)c(-c2ccc(OC)c(OC)c2)c2c(OC)c(OC)c(OC)cc2c1O` [compound A, methyl 1-(3,4-dimethoxyphenyl)-3-(3-ethylvaleryl)-4-hydroxy-6,7,8-trimethoxy-2-naphtoate], for which the “HMG-CoA reductase activity in the liver” value is on record as “increased the HMG-CoA reductase activity in the liver”.
